Assay results taken from patent US8906865B2, “Treatment of inflammation and/or endotoxic shock” (ISIS Innovation Limited, priority 2007, dated 2014).
Non-standard residues stand in square brackets, D forms with d. Residues, ends and D or L forms follow the SMILES beside them. *: point of attachment. Sta = CC(C)C[C@H](N)[C@@H](O)CC(=O)O; Isovaleryl = CC(C)CC(=O)*; Cbz = O=C(OCc1ccccc1)*; CH2F = FC*

Tests used:
[1] = quoted in the discussion; cited from earlier work
[2] = system: Murine peritoneal macrophages (PMΦ); experiment: Macrophage activation assay: LPS/IFNγ-induced inflammatory cytokine expression (ELISA, Luminex); format: cell-based, mouse; conditions: for Effect of protease inhibitor on chemerin-mediated suppression of MΦ activation (FIG. 1F): chemerin 1 pM + protease inhibitor 1 h, then LPS/IFNγ 15 h; for Percentage inhibition of LPS/IFNγ-induced inflammatory cytokine expression: RANTES / Percentage inhibition of LPS/IFNγ-induced inflammatory cytokine expression: TNFα: PMΦ, pre-treatment 1 h (0.1 pM-100 nM), then LPS 100 ng/ml + IFNγ 20 ng/ml 15 h, optimal dose (1 pM Chemerin and C15, 100 pM C13 and C19); for Optimal dose (maximal response) for suppression of LPS/IFNγ-induced cytokine expression: macrophage activation assay; for Anti-inflammatory activity in the MΦ activation assay: peptides 0.1 pM-100 nM
Procedure: Murine peritoneal macrophages (PMθ, also referred to as PMΦ herein) were cultured under various conditions: Untreated; LPS (100 ng/ml) and IFNγ (20 ng/ml) for 15 h; Chemerin (1 pM) pre-treatment for 1 h then LPS/IFNγ for 15 h; Leupeptin (protease inhibitor; 15 mg/ml) and Chemerin (1 pM) for 1 h then LPS/IFNγ for 15 h; or Dexamethasone (positive control; 1 μM pre-treatment for 1 h then LPS/IFNγ for 15 h.
Murine PMθ were cultured under various conditions: Untreated, LPS (100 ng/ml) and IFNγ (20 ng/ml) for 15 h; Chemerin peptides (at a concentration of 1 pM-100 nM) pre-treatment for 1 h then LPS/IFNγ for 15 h. […] Experiments were performed with triplicate determinations for each treatment. Representative data from five independent experiments employing cells from different groups of C57B16/J mice are shown. p<0.01 **; p<0.001 *** relative to LPS/IFNγ treated samples.
With reference to Table 1, anti-inflammatory activity of chemerin-derived peptides—Murine PMΦ were cultured as described for FIG. 1B and were challenged with LPS (100 ng/ml) and IFNγ (20 ng/ml) for 15 h with/without pre-treatment with peptides (0.1 pM-100 nM) for 1 h. […] Peptide sequences are: C11 (P144-A154; […]), C13 (P144-S156; […]), C15 (A140-A154; […]), C19 (A138-S156; […]; Seq ID: No. 37), N19 (E23-K41; […] Seq ID No: 44) and M20 (K86-K105; […] Seq ID No. 45). Control peptides: scrambled C15 (C15-S; […]) and mutant C15 (C15-M; […]; F148A & F153A). Data represent mean percentage inhibition of cytokine production by classically activated macrophages from 4-8 independent experiments as determined by ELISA and Luminex assay.
1 ml 2% BioGEL polyacrylamide beads in sterile Phosphate-Buffered Saline (PBS) were injected intraperitoneally (ip) into C57B1/6J mice. Four days after ip BioGEL administration, mice were sacrificed by the CO, method according to Home Office guidelines. Peritoneal cavities were flushed with 10 ml sterile PBS-2 mM EDTA to harvest BioGEL-evoked/elicited cellular infiltrate. Suspensions of harvested cells were centrifuged at 1000×g for 5 mins at 4° C. The supernatants were discarded and cell pellets were resuspended in 6 mls OptiMEM medium supplemented with 2 mM Glutamine, 50 units/ml Penicillin and 50 μg/ml Streptomycin. Macrophages were quantified following incubation on ice for 5-10 mins with Turk's solution using a haemocytometer. Cell suspensions (2 mls; 1.5×10^6/well) were plated in six-well tissue culture plates (35 mm diameter: Costar, UK) and allowed to adhere for 2 hours at 37° C. in a humidified atmosphere containing 5% CO2, to isolate macrophage populations by adherence. This gave greater than 95% purity assessed by cytospinning, staining of cells with Methylene Blue and Eosin and counting based on cellular morphology. Nonadherent cells (mainly granulocytes) were discarded and wells were washed three times with sterile PBS to remove loosely adherent or dead cells. […] To determine PTX sensitivity and dependency upon proteolysis, cells were pre-incubated with PTX (200 ng/ml) or Leupeptin (15 μg/ml). Additional cells were treated with peptides alone. Supernatants were harvested and stored at −20° C. until use in Enzyme-Linked Immunosorbance Assays (ELISAs) and Luminex assays. Cells were lysed to allow extraction of total RNA by the TRIZOL method. Lysates were stored at −80° C. until RNA extraction following manufacturer's guidelines (Qiagen, RNeasy Mini Prep Kit).
RANTES, Tumour necrosis factor (TNFα) and CCL9 concentrations in cell supernatants were assessed by ELISA. IL-12 p40, IL-10, IL-1β, TNFα, MCP-1 (Monocyte chemoattractant protein-1) and IL-6 levels were determined by Luminex multiplex bead assay (Bio-rad 6 plex assay). Lower limits of detection for ELISAs were 0.1-0.5 ng/ml and 10-50 pg/ml for Luminex assays.

[3] = system: PMΦ (peritoneal macrophages); experiment: Macrophage chemotaxis assay (modified Boyden chamber); format: cell-based, mouse; conditions: for Macrophage chemotactic activity: migration over 4 h, compared with C140 and RANTES 25 ng/ml; for Concentration of maximal macrophage migration: tested 1 pM-100 nM
Procedure: PMθ (0.5×10^6) were allowed to migrate towards chemoattractant (Chemerin140 or Chemerin peptides) in the bottom well of a modified Boyden chamber over 4 h. Filters were fixed in 4% formalin, then migrated cell nuclei were stained with DAPI and visualised. Serum free media (SFM) were used as a negative control and the macrophage chemoattractant RANTES (25 ng/ml; 3 nM) as a positive control. The graphs indicate mean Migration Index (Chemoattractant % threshold area/SFM % threshold area)±SEM for each treatment group (n=5-6). p<0.001 ***; p<0.01 **; p<0.05 * relative to SFM treated wells.
PMθ were recruited following a 4 day peritoneal stimulation with BioGEL beads. Peritoneal cavities of male C57B16/J mice were lavaged with 5 ml PBS-2 mM EDTA. Cells were centrifuged and resuspended in RPMI supplemented with 0.5% BSA and 25 mM Hepes. Cells (0.5×10^6) were allowed to migrate towards chemoattractant (C140, C17m or C17m+C140) in the bottom well over 4 h. Filters were fixed in 4% formalin, then nuclei were stained with DAPI and visualised. Serum free media was used as a negative control (−/−). Cells were preincubated with Pertussis toxin (PTX) for 30 mins before the chemotaxis assay. The bar graphs in FIG. 11 show the mean Migration Index±SEM for each treatment group. Each bar represents at least triplicate wells and at least 3 pictures taken per treatment. p<0.001 ***; p<0.01 **; p<0.05 * relative to SFM treated wells unless otherwise stated.
Cell migration was assessed by use of transwell membranes (ChemoTX, 6-mm diameter, 8-μm pore size). Briefly, BioGEL-elicited cells were harvested and placed on transwell membranes (250 000 cells/membrane in RPMI supplemented with 25 mM Hepes and 0.1% bovine serum albumin. Cells were allowed to migrate toward Chemerin peptides (1 pM-100 nM) for 4 h. Signal transduction via G protein-coupled receptors was blocked by preincubating cells with pertussis toxin (PTX, 200 ng/ml, Sigma-Aldrich) for 30 mins before placing cells on transwell membranes. Migrated cells on the underside of membranes were fixed (3% formaldehyde) and stained with DAPI. Migration was quantified as total pixel count of DAPI stained nuclei under the confocal microscope (2 photos/membrane and a minimum of 3 replicate wells per treatment). Images were analyzed using Metamorph Offline software to determine percentage threshold areas (TA) occupied by migrated cells. Migration indices were obtained by dividing treatment TA by serum-free media TA. For secondary chemotaxis assays ChemoTx 3-mm diameter, 8-μm pore membranes were used with 50 000 cells/membrane.

[4] = C13m 100 pM, C15m 1 pM, C17m 1 pM, pre-treatment 1 h then LPS/IFNγ 15 h

Molecule	Effect of protease inhibitor on chemerin-mediated suppression of MΦ activation (FIG. 1F) [2]	Macrophage chemotactic activity [3]	Percentage inhibition of LPS/IFNγ-induced inflammatory cytokine expression: RANTES [2] [%]	Percentage inhibition of LPS/IFNγ-induced inflammatory cytokine expression: TNFα [2] [%]	Anti-inflammatory activity in the MΦ activation assay [2]	further results
CCCCC/C=C\C[C@@H](O)/C=C/C=C/C=C\[C@@H](O)CCCC(=O)O [LTB4, leukotriene B4]	–	–	–	–	–	Potency of comparison mediators [1]: 10^−11 M
CC(=O)N[C@@H](CC(C)C)C(=O)N[C@@H](CC(C)C)C(=O)N[C@H](C=O)CCCNC(=N)N [Leupeptin, reference compound]	abolished its anti-inflammatory effects	–	–	–	–	–
Cl.NCCc1ccc(S(=O)(=O)F)cc1 [Pefabloc, reference compound]	exerted no effect	–	–	–	–	–
CC(C)CC(=O)N[C@H](C(=O)N[C@H](C(=O)N[C@@H](CC(C)C)[C@@H](O)CC(=O)N[C@@H](C)C(=O)N[C@@H](CC(C)C)[C@@H](O)CC(=O)O)C(C)C)C(C)C [Pepstatin A, reference compound] (Isovaleryl-VV[Sta]A[Sta]-OH)	exerted no effect	–	–	–	–	–
O=C(NC(Cc1ccccc1)C(=O)NC(Cc1ccccc1)C(=O)CF)OCc1ccccc1 (stereo not drawn) [Z-FF-FMK, reference compound] (Cbz-Phe-Phe-CH2F; configuration not given here)	independent of cathepsin L	–	–	–	–	–
CC(C)C[C@H](NC(=O)[C@H](Cc1ccccc1)NC(=O)OCc1ccccc1)C(=O)C=O [Z-FL-COCHO, reference compound]	dependent upon calpains and cathepsin S	–	–	–	–	–
CCCC[C@@H](C=O)NC(=O)[C@H](CC(C)C)NC(=O)OCc1ccccc1 [calpeptin, reference compound]	dependent upon calpains	–	–	–	–	–
CSCC[C@H](NC=O)C(=O)N[C@@H](CC(C)C)C(=O)N[C@@H](Cc1ccccc1)C(=O)O [fMLP, formyl-Methionyl-Leucyl-Phenylalanine]	–	–	–	–	–	Potency of comparison mediators [1]: 10^−11 M
AQAGEDPHGYFLPGQFAFS (listed as Mus sp.) [C19]	–	no chemotactic activity	41	21	–	Optimal dose (maximal response) for suppression of LPS/IFNγ-induced cytokine expression [2]: 100 pM
ELSETQRRSLQVALEEFHK (listed as Mus sp.) [N19, N-terminal peptide E23-K41]	–	–	0	0	devoid of anti-inflammatory activity	–
FSRALRTK (listed as Mus sp.) [C8, 8 aa peptide removed during prochemerin cleavage, reference compound]	–	incapable of inducing MΦ migration	0	0	no detectable anti-inflammatory activity	–
KPECTIKPNGRRRKCLACIK (listed as Mus sp.) [M20, midstream peptide K86-K105]	–	–	0	0	devoid of anti-inflammatory activity	–
PHGYFLPGQFA (listed as Mus sp.) [C11]	–	little chemotactic activity	0	0	devoid of anti-inflammatory activity	Concentration of maximal macrophage migration [3]: 10 nM
PHGYFLPGQFAFS (listed as Mus sp.) [C13]	–	little chemotactic activity	32	10	–	Concentration of maximal macrophage migration [3]: 10 nM; Suppression of LPS/IFNγ-induced RANTES secretion (FIG. 2B) [2, 4]: 32%; Suppression of LPS/IFNγ-induced TNFα expression (FIG. 2B) [2, 4]: 10%; Optimal dose (maximal response) for suppression of LPS/IFNγ-induced cytokine expression [2]: 100 pM
RALRTK (listed as Mus sp.) [C6, 6 aa peptide removed during prochemerin cleavage, reference compound]	–	incapable of inducing MΦ migration	0	0	no detectable anti-inflammatory activity	–
TNFα	–	–	–	–	–	Potency of comparison mediators [1]: 10^−11 M
